Blank lines part the entries; values can stand above or below the molecule they belong to.
What was measured:
[1] = test system: Reh(pre-B) on the colon cell line HT 29; assay: Adhesion assay: Reh (pre-B) on the colon cell line HT 29; type: cell-based; settings: 10 μg/batch; for Mittelwert (%) (mean value), specific adhesion: percentage of the 100% value; for Index: relative to without carbohydrate = 1.00
Procedure: In the adhesion assay, the influence of galactomanno-oligosaccharides according to the present invention on the adhesion of B cell lines (for example, Reh) and normal human B lymphocytes to epithelial cells (colon tumor line HT 29) was measured. In the overlay assay used, the lymphocytes were intracellularly marked with calcein so as to make it possible to carry out the measurement by means of fluorometry.
First, coating with the adherent colon epithelial cell one (HT 29) in microtiter plates (24-hole Costar® plates) took place, with incubation (37° C., overnight) until a confluent bed has formed. This is done as much as possible in a serum-free medium Inoculum: 1×10^4 cells. Before the subsequent assay was carried out, the adherent cells were washed three times with PBS(phosphate-buffered physiological saline solution) and blocked for 1 h at room temperature with PBS+1% bovine serum albumin (BSA).
The untreated B cell lines or isolated B lymphocytes to be tested were marked with fluorescent calcein (1×10^7 cells in 2 mL of RPMI medium+HEPES+10 μL of calcein AM, 30 min, 37° C.; subsequently washed 2× with HBSS (Hanks buffer)+0.25% BSA) and 1×10^6 cells in 0.5 mL of PBS+0.25% […] per hole were incubated for 1 h. The culture plate was placed on a shaker for 10 sec, 0.5 mL of 0.2% glutaraldehyde in PBS+0.2% BSA per hole were added and incubated for 10 min on the shaker. The fluorescence of the plate was measured in a fluorescence measuring device ([…]).
The first measurement corresponds to the 100% value. Subsequently, the plate was washed four times and again measured. This measurement corresponds to the specific adhesion which is expressed as a percentage of the 100% value minus the autofluorescence value (unmarked cells). The control substances used were galactose and glucose.

[2] = test system: E. coli, 2 strains; assay: Adhesion of pathogenic microorganisms to human uroepithelial cells, E. coli; type: cell-based; settings: human uroepithelial cells preincubated with the carbohydrate
Procedure: (§1) Human uroepithelial cells obtained by means of centrifugation from first morning urine
(§2) Staphylococcus aureus, 2 strains, and E. coli, 2 strains, each as suspension with 10^9 microorganisms/mL
(§3) The epithelial cells and the suspension of microorganisms were combined and incubated for 30 min at 37° C. Subsequently, the epithelial cells were separated from the nonadherent microorganisms by means of membrane filtration (8 μ). The filters were repeatedly washed and placed into physiological saline solution, and the epithelial cells were suspended in said solution. After centrifuging the suspension in saline solution, the pellet was placed on a microscopic slide and stained according to May-Grünwald and Giemsa. The number of the microorganisms adhering to 50 epithelial cells as counted. The number represented the blank reading. Epithelial cells without the addition of a suspension of microorganisms served as the control.
(§4) In the main test, epithelial cells were first incubated for 1, 2, and 3 h with galactomanno-oligosaccharide solutions of different concentrations. They were subsequently combined with the suspension of microorganisms and treated as described above. The number of microorganisms adhering to 50 epithelial cells represented the measured value.

[3] = test system: Staphylococcus aureus, 2 strains; assay: Adhesion of pathogenic microorganisms to human uroepithelial cells, Staphylococcus aureus; type: cell-based; settings: human uroepithelial cells preincubated with the carbohydrate
Procedure: as §1, §2, §3, §4

[4] = test system: resected colon pieces (distal segment); assay: Mucus secretion of resected colon pieces; type: cell-based; settings: pig colon pieces, 5 h, 37°, Hanks buffer; galactomanno-oligosaccharides 1%
Procedure: After thoroughly cleaning the resected colon of a freshly slaughtered pig, pieces measuring 1 cm^2 were cut from the distal segment of said colon. The pieces thus prepared were incubated, while stirring and fumigating with oxygen, for 5 h at a temperature of 37° in Hanks buffer to which chloramphenicol and ampicillin (50 μg/mL each) had been added. The buffer additionally contained 1% of the galactomanno-oligosaccharides produced according to the present invention and to be tested for their stimulating effect on the mucus secretion. As a control, 10 colon segments were used in each batch to be tested. One of the batches contained hydrocortisone which is normally used in the treatment of inflammatory intestinal diseases.
As a measure for an increase in the mucus secretion, the increase in the total carbohydrate content in the supernatant portion was measured. For this purpose, during the incubation, samples were collected at various times, and 20 μL of resorcin solution (6 mg/mL) and 100 μL of 75% sulfuric acid were added to 10 μL of each sample, and after an incubation time of 60 min at 80° C., the extinction was measured at λ=450 nm.

[5] = Stability in the stomach: hydrolysis rate at pH 1.0 and 2.0; type: physicochemical; settings: 37° C.
Procedure: For this purpose, 1% galactomanno-oligosaccharide solutions were incubated for 3 h at a pH value of 1.0 (0.1 M HCl) and a pH value of 2.0 (0.01 M HCl) and a temperature of 37° C. After 60, 120, and 180 min, samples were taken from the reaction batch and analyzed by means of HPAEC. The control substances used were saccharose and 1-kestose.

[6] = test system: fresh tooth plaque (mixed culture); assay: Stability in the mouth: incubation with fresh tooth plaque; type: in vitro ADME, male volunteers; settings: 10 mg plaque in 1 mL 1% solution, pH 7.5, 37° C., 2 h (120 min)
Procedure: Plaque samples were obtained from three male volunteers who had not brushed their teeth for three days, and in each case, 10 mg of the plaque were suspended in 1 mL of oligosaccharide solution (1% in 20 mM carbonate buffer, pH 7.5). In the course of the two-hour-long incubation time at 37° C., samples were taken and tested for their oligosaccharide content.

[7] = test system: Streptococcus mutans DSM 20523; assay: Stability in the mouth: incubation with Streptococcus mutans; type: in vitro ADME; settings: 1% in 20 mM carbonate buffer pH 7.5, 37° C., 2 h (120 min)
Procedure: (§5) Streptococcus mutans and Streptococcus sobrinus were cultivated for 24 h in liquid DSM medium 92 under anaerobic conditions at 37° C. At the end of the logarithmic growth phase, the cells were centrifuged off (15 min, 4000×g) and resuspended in 10% of the original 20 mM carbonate buffer, pH 7.5. Subsequently, 9 mL of a solution of the oligosaccharides according to the present invention (1% in 20 mM carbonate buffer, pH 7.5) were inoculated with 1 mL of the bacterial suspension and incubated for 2 h at 37° C.

[8] = target: T1, saccharase/isomaltase (SI complex) (Sus scrofa, UniProt P56729); assay: Cleavability by alpha-glucosidases of the small intestine, SI complex; type: in vitro ADME, pigs; settings: SI enzyme complex 0.7 U, 1% in TRA buffer pH 7.0, 2 h, 37° C.
T1 construct: were isolated from the thin intestine of pigs using the method described by H. Heymann; from tissue; host or cells: pig small intestine (mucous membrane)
T1 sequence (P56729 with tags, fused parts or gaps): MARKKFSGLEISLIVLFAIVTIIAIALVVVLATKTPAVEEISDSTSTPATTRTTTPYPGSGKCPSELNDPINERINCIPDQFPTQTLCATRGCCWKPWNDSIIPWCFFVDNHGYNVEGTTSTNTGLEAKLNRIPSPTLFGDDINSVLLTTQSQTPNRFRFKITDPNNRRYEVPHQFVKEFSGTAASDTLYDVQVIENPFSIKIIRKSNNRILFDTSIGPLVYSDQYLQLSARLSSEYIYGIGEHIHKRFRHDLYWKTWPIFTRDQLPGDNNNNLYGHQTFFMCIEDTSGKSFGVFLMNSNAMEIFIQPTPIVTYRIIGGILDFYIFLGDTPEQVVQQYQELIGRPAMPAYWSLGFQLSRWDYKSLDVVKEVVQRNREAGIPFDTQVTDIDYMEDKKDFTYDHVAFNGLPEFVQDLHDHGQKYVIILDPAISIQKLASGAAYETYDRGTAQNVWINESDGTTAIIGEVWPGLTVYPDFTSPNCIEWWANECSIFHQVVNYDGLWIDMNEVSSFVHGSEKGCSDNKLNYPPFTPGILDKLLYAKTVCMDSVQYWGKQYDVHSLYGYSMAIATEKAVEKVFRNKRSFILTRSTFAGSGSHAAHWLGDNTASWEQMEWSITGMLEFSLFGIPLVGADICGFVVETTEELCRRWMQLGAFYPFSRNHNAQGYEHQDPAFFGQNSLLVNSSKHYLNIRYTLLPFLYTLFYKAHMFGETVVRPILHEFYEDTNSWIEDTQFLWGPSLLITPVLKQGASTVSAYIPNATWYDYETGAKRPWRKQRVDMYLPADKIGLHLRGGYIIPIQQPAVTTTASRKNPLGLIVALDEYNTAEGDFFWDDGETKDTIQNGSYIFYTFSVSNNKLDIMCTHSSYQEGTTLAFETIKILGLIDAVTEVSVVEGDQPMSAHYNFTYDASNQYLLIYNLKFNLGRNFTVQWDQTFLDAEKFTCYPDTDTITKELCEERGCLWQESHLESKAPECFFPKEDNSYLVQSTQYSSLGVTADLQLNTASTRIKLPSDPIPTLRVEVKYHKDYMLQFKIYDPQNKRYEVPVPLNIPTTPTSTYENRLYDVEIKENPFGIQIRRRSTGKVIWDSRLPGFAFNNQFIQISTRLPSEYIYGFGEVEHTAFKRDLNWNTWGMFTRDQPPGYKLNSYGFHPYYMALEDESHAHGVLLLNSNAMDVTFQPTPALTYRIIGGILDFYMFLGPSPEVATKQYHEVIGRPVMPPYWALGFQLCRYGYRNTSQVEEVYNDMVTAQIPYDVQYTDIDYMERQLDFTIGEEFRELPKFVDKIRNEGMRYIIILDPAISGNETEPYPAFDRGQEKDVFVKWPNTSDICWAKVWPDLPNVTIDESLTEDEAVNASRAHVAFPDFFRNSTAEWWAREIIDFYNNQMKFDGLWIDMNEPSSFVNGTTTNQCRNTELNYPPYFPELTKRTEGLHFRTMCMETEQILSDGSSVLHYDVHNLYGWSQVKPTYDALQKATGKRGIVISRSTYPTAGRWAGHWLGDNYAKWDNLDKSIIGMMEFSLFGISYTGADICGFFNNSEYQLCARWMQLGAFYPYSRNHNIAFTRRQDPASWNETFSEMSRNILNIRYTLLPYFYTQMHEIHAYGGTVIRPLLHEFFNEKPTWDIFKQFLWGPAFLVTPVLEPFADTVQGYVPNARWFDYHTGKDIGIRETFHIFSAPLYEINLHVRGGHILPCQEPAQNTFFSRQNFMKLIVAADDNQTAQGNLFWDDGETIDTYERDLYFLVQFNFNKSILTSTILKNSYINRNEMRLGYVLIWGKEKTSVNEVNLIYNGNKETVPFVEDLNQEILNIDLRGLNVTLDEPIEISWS
From the text: In vivo, the enzyme complexes saccharase/isomaltase and glucoamylase/maltase which are present in the mucous membranes of the small intestine ensure that after their passage into the small intestine, the disaccharides maltose and saccharose and in part also the malto-oligosaccharides are cleaved to form monosaccharides and as such are able to reach the circulatory system via the intestinal wall.
The stability of the galactomanno-oligosaccharides according to the present invention against these enzymes was tested as follows:
The enzyme complexes saccharase/isomaltase (SI complex) and glucoamylase/maltase (GM complex) were isolated from the thin intestine of pigs using the method described by H. Heymann (dissertation, Hannover, 1991).
The cleavability of the galactomanno-oligosaccharides according to the present invention by means of a-glucosidases present in the small intestine was determined as follows:
Triethanolamine (TRA) buffer, 0.1 M, pH 7.0
Galactomanno-oligosaccharides, 1% solution in TRA buffer
Maltose and saccharose as control substances, 1% in TRA buffer […]
At t=0, 0.7 U of the enzyme complex saccharase/isomaltase or glucoamylase/maltase were added to 1.2 mL of the carbohydrate solution which had been heated to a temperature of 37° C., mixed, and incubated at 37° C. […] The monosaccharides formed as well as the test substances used were quantitatively determined by means of HPAEC.

[9] = test system: Streptococcus sobrinus NCTC 10922; assay: Stability in the mouth: incubation with Streptococcus sobrinus; type: in vitro ADME; settings: 1% in 20 mM carbonate buffer pH 7.5, 37° C., 2 h (120 min)
Procedure: as §5

[10] = test system: granulocytes; assay: Phagocytosis assay, granulocytes; type: cell-based; settings: 100 μg/batch, whole blood
Procedure: (§6) The influence of the galactomanno-oligosaccharides according to the present invention on the function of the phagocytes (mono-, granulocytes) can be determined by means of phagocytosis assays. During the phagocytosis stimulation, the phagocytes were first incubated with galactomanno-oligosaccharides (100 μg of glycan/0. 11 mL of whole blood, 37° C., 10 min). A corresponding blank was incubated for 10 min in an ice bath. Subsequently, the actual phagocytosis test was carried out under the following conditions:
(§7) 0.11 mL of the preliminary incubation solution was allowed to stand for 10 min in the ice bath; subsequently, 0.01 mL of nonopsonized E. coli (fluorescein isothiocyanate (FITC) marked, 10^9 per mL, ORPEGEN) or 0.01 mL of nonopsonized Staphylococcus aureus (15×10^6 per mL, FITC marked, MOLECULAR PROBES) were added. The batches were incubated (double determinations) for 10 min at 37° C. The batches were washed twice with 3 mL of washing buffer (ORPEGEN) each and centrifuged at 250×g for 5 min at 4° C. […]
(§8) The measurement was carried out in the flow cytometer (excitation: 488 nm, emission FL-1: 520 nm); monocytes and granulocytes can be distinguished from each other without separation (forward light scatter (FSC) versus ([…]) (sideways light scatter). The results are expressed as a percentage of the phagocytosis-positive cells (see Table VI below). […]

[11] = test system: monocytes; assay: Phagocytosis assay, monocytes; type: cell-based; settings: E. coli nonopsonized, 100 μg/batch, whole blood
Procedure: as §6, §7, §8

Structure (SMILES): O=C[C@H](O)[C@@H](O)[C@@H](O)[C@H](O)CO [D-Galactose]
Mittelwert (%) (mean value), specific adhesion [1]: 51% | Index [1]: 1.12

Structure (SMILES): OC[C@H]1O[C@H](O[C@]2(CO)O[C@H](CO[C@H]3O[C@H](CO)[C@@H](O)[C@H](O)[C@H]3O)[C@@H](O)[C@@H]2O)[C@H](O)[C@@H](O)[C@@H]1O [isomelzitose]
number of microorganisms adhering to the epithelial cells [2]: not reduced | number of microorganisms adhering to the epithelial cells [3]: not reduced

Structure (SMILES): OC[C@H]1O[C@@](CO)(OC[C@@]2(OC[C@@]3(O[C@H]4O[C@H](CO)[C@@H](O)[C@H](O)[C@H]4O)O[C@H](CO)[C@@H](O)[C@@H]3O)O[C@H](CO)[C@@H](O)[C@@H]2O)[C@@H](O)[C@@H]1O [nystose]
number of microorganisms adhering to the epithelial cells [2]: not reduced | number of microorganisms adhering to the epithelial cells [3]: not reduced

Structure (SMILES): C[C@]12CCC(=O)C=C1CC[C@@H]1[C@@H]2[C@@H](O)C[C@@]2(C)[C@H]1CC[C@]2(O)C(=O)CO [hydrocortisone]
increase in the mucus secretion compared to the control (total carbohydrate in supernatant) [4]: approximately 5.3 -fold

Hydrolysis rate in % ([5]; pH 1 (0.1 M HCl), 60 min): 90% | Hydrolysis rate in % ([5]; pH 1 (0.1 M HCl), 120 min): 100% | Hydrolysis rate in % ([5]; pH 1 (0.1 M HCl), 180 min): 100% | Hydrolysis rate in % ([5]; pH 2 (0.01 M HCl), 60 min): 16% | Hydrolysis rate in % ([5]; pH 2 (0.01 M HCl), 120 min): 30% | Hydrolysis rate in % ([5]; pH 2 (0.01 M HCl), 180 min): 43%
Structure (SMILES): OC[C@H]1O[C@@](CO)(OC[C@@]2(O[C@H]3O[C@H](CO)[C@@H](O)[C@H](O)[C@H]3O)O[C@H](CO)[C@@H](O)[C@@H]2O)[C@@H](O)[C@@H]1O [1-Kestose, 1-kestose]

cleavage/hydrolysis of the carbohydrate [6]: completely hydrolyzed | Hydrolysis rate in % ([5]; pH 1 (0.1 M HCl), 60 min): 24% | Hydrolysis rate in % ([5]; pH 1 (0.1 M HCl), 120 min): 55% | Hydrolysis rate in % ([5]; pH 1 (0.1 M HCl), 180 min): 61% | Hydrolysis rate in % ([5]; pH 2 (0.01 M HCl), 60 min): 1% | Hydrolysis rate in % ([5]; pH 2 (0.01 M HCl), 120 min): 2% | Hydrolysis rate in % ([5]; pH 2 (0.01 M HCl), 180 min): 7% | cleavage/hydrolysis of the carbohydrate [7]: completely hydrolyzed | Hydrolyserate (%) (Hydrolysis rate) [8]: 98% | cleavage/hydrolysis of the carbohydrate [9]: completely hydrolyzed
Structure (SMILES): OC[C@H]1O[C@@](CO)(O[C@H]2O[C@H](CO)[C@@H](O)[C@H](O)[C@H]2O)[C@@H](O)[C@@H]1O [Saccharose, saccharose]

Structure (SMILES): O=C[C@H](O)[C@@H](O)[C@H](O)[C@H](O)CO [D-Glucose]
Mittelwert (%) (mean value), specific adhesion [1]: 47% | Index [1]: 1.11

Structure (SMILES): OC[C@H]1O[C@H](OC[C@H]2O[C@H](O[C@]3(CO)O[C@H](CO)[C@@H](O)[C@@H]3O)[C@H](O)[C@@H](O)[C@@H]2O)[C@H](O)[C@@H](O)[C@H]1O [raffinose]
number of microorganisms adhering to the epithelial cells [2]: not reduced | number of microorganisms adhering to the epithelial cells [3]: not reduced | Granulocyten (% positive Zellen), phagocytosis-positive cells ([10]; E. coli nonopsonized): 17.0% | Granulocyten (% positive Zellen), phagocytosis-positive cells ([10]; Staph. aureus nonopsonized): 30.0% | Monocyten (% positive Zellen), phagocytosis-positive cells [11]: 22.0%

Reference: patent US20030162300A1, “Galactomannan-oligosaccharides and methods for the production and use thereof” (priority 1999, published 2003)
